The record followed here is US20240101546A1, “HETEROARYL-ACETYLENES, PHARMACEUTICAL COMPOSITIONS THEREOF, AND THEIR THERAPEUTIC APPLICATIONS” (Eubulus Biotherapeutics Inc., priority 2020, published 2024).

Each structure is given as a SMILES string.

The test system of this assay is lung cancer cell line NCI-H82. Briefly: Cell proliferation assay, NCI-H82 (CELL-TITER GLO). Format: cell-based. As to conditions: Homo sapiens, NCI-H82, 72 h, NCI-H82 cells, 72 h incubation, cell viability by CELL-TITER GLO, top concentration 1 μM; read-out: EC50, Inhibition of NCl-H82 Cell Proliferation. The procedure: The activity of a compound was determined in a cell proliferation assay using the lung cancer cell line NCI-H82. Cells (1,000 cells per well) were cultured with RPMI1640 in a 384-well tissue culture plate. After incubated overnight, the compound was added at predetermined concentrations, starting with 1 μM and followed by a 3-fold serial dilution. After the cells were incubated for 72 h, cell viability was determined using a CELL-TITER GLO assay. The CELL-TITER GLO reagent (25 μL) was added to each well and the luminescence was measured by a multimode microplate reader after a brief period of shaking. EC50 values were determined for the compound. The results are summarized in Table 1, wherein A represents a value no greater than 200 nM, B represents a value greater than 200 nM but no greater than 1 μM, C represents a value greater than 1 μM but no greater than […], and D represents a value greater than 5 μM.
With `C#Cc1nc(NC(=O)N[C@H](CO)c2ccc(-c3cccc4ncsc34)cc2)cs1` [Compound A41, (S)-1-(1-(4-(Benzo[d]thiazol-7-yl)phenyl)-2-hydroxyethyl)-3-(2-ethynylthiazol-4-yl)urea], the EC50 is at most 200 nM.

In the case of `C#Cc1nc(NC(=O)N[C@@H](CO)c2ccc(-c3ccccc3C#N)cn2)cs1` [Compound A45, (R)-1-(1-(5-(2-Cyanophenyl)pyridin-2-yl)-2-hydroxyethyl)-3-(2-ethynylthiazol-4-yl)urea], the EC50 is at most 200 nM. Then `C#Cc1nc(NC(=O)N[C@@H](COC(N)=O)c2ccc(-c3cccc(C#N)c3)cc2)cs1` [Compound A221, (R)-2-(3′-Cyano-[1,1′-biphenyl]-4-yl)-2-(3-(2-ethynylthiazol-4-yl)ureido)ethyl carbamate], with at most 200 nM; and `C#Cc1nc(NC(=O)N[C@@H](CO)c2ccc(C3=CCN(C)CC3)cc2)cs1` [Compound A185, (R)-1-(2-Ethynylthiazol-4-yl)-3-(2-hydroxy-1-(4-(1-methyl-1,2,3,6-tetrahydro-pyridin-4-yl)phenyl)ethyl)urea], with 200 to 1000 nM. In the case of `C#Cc1nc(NC(=O)N2CCN(c3ccc(-c4cccc5nnsc45)cc3)CC2)cs1` [Compound B28, 4-(4-(Benzo[d][1,2,3]thiadiazol-7-yl)phenyl)-N-(2-ethynylthiazol-4-yl)piperazine-1-carboxamide] it was at most 200 nM; in that of `C#Cc1nc(NC(=O)N[C@@H](CO)c2ccc(-c3cccnc3C3(C#N)CC3)c(F)c2)cs1` [Compound A68, (R)-1-(1-(4-(2-(1-Cyanocyclopropyl)pyridin-3-yl)-3-fluorophenyl)-2-hydroxy-ethyl)-3-(2-ethynylthiazol-4-yl)urea], at most 200 nM; in that of `C#Cc1nc(NC(=O)Nc2ncnc3cc(-c4cccnc4C4(C#N)CC4)ccc23)cs1` [Compound A166, 1-(7-(2-(1-Cyanocyclopropyl)pyridin-3-yl)quinazolin-4-yl)-3-(2-ethynylthiazol-4-yl)urea], at most 200 nM. For the compound `C#Cc1nc(NC(=O)N[C@@H](CO)c2ccc(-c3ccccc3C3(C#N)CC3)nc2)cs1` [Compound A59, (R)-1-(1-(6-(2-(1-Cyanocyclopropyl)phenyl)pyridin-3-yl)-2-hydroxyethyl)-3-(2-ethynylthiazol-4-yl)urea], the EC50 was at most 200 nM. For the compound `C#Cc1nc(NC(=O)N[C@@H](CS(N)(=O)=O)c2ccc(-c3ccc(F)c4ncsc34)c(Cl)c2)cs1` [Compound A115, (R)-2-(3-Chloro-4-(4-fluorobenzo[d]thiazol-7-yl)phenyl)-2-(3-(2-ethynylthiazol-4-yl)ureido)ethane-1-sulfonamide], the EC50 was at most 200 nM. Take `C#Cc1ccnc(NC(=O)N[C@@H](CO)c2ccc(-c3cccc(N4CCCC4)n3)cc2)n1` [Compound A123, (R)-1-(4-Ethynylpyrimidin-2-yl)-3-(2-hydroxy-1-(4-(6-(pyrrolidin-1-yl)pyridin-2-yl)phenyl)ethyl)urea]: the EC50 was at most 200 nM. In the case of `C#Cc1nc(NC(=O)N[C@@H](COC(N)=O)c2ccc(C3CCCc4c3cnn4C)cc2)cs1` (stereo partly drawn) [Compound A232, (2R)-2-(3-(2-Ethynylthiazol-4-yl)ureido)-2-(4-(1-methyl-4,5,6,7-tetrahydro-1H-indazol-4-yl)phenyl)ethyl carbamate], the EC50 is at most 200 nM. Then `C#Cc1nc(NC(=O)N[C@@H](C(=O)NC)c2ccc(-c3cccc4ncsc34)cc2)cs1` [Compound A215, (R)-2-(4-(Benzo[d]thiazol-7-yl)phenyl)-2-(3-(2-ethynylthiazol-4-yl)ureido)-N-methylacetamide], with at most 200 nM; and `C#Cc1nc(NC(=O)N[C@@H](COC(N)=O)c2ccc(-c3ncccc3C3(C#N)CC3)cc2)cs1` [Compound A58, (R)-2-(4-(3-(1-Cyanocyclopropyl)pyridin-2-yl)phenyl)-2-(3-(2-ethynylthiazol-4-yl)ureido)ethyl carbamate], with at most 200 nM; and `C#Cc1nc(NC(=O)Nc2ncnc3c(F)c(-c4cccc5ncsc45)c(Cl)cc23)cs1` [Compound A165, 1-(7-(Benzo[d]thiazol-7-yl)-6-chloro-8-fluoroquinazolin-4-yl)-3-(2-ethynyl-thiazol-4-yl)urea], with at most 200 nM.

Take `C#Cc1nc(NC(=O)N[C@@H](CO)c2ccc(N3CCCCCC3=O)cc2)cs1` [Compound A138, (R)-1-(2-Ethynylthiazol-4-yl)-3-(2-hydroxy-1-(4-(2-oxoazepan-1-yl)phenyl)-ethyl)urea]: the EC50 was at most 200 nM. As for `C#Cc1nc(NC(=O)N[C@@H](CO)c2ccc(-c3cccc4ncsc34)cc2)c(C)s1` [Compound A119, (R)-1-(1-(4-(Benzo[d]thiazol-7-yl)phenyl)-2-hydroxyethyl)-3-(2-ethynyl-5-methylthiazol-4-yl)urea], the EC50 is at most 200 nM. In the case of `C#Cc1nc(NC(=O)N[C@@H](CO)c2ccc(-c3cccnc3C3(C#N)CC3)cc2)cs1` [Compound A62, (R)-1-(1-(4-(2-(1-Cyanocyclopropyl)pyridin-3-yl)phenyl)-2-hydroxyethyl)-3-(2-ethynylthiazol-4-yl)urea] it was at most 200 nM; in that of `C#Cc1nc(NC(=O)N[C@@H](CO)c2ccc(-c3ccccc3C3(C#N)CC3)cc2)cs1` [Compound A54, (R)-1-(1-(2′-(1-Cyanocyclopropyl)-[1,1′-biphenyl]-4-yl)-2-hydroxyethyl)-3-(2-ethynylthiazol-4-yl)urea], at most 200 nM; in that of `C#Cc1nc(NC(=O)N[C@@H](COC(N)=O)c2ccc(-c3cccc4cncnc34)cc2)cs1` [Compound A50, (R)-2-(3-(2-Ethynylthiazol-4-yl)ureido)-2-(4-(quinazolin-8-yl)phenyl)ethyl carbamate], at most 200 nM.

For the compound `C#Cc1nc(NC(=O)N[C@H](C(N)=O)c2ccc(-c3cccc4ncsc34)cc2)cs1` [Compound A211, (S)-2-(4-(Benzo[d]thiazol-7-yl)phenyl)-2-(3-(2-ethynylthiazol-4-yl)ureido)-acetamide], the EC50 is at most 200 nM. For the compound `C#Cc1nc(NC(=O)N(C)[C@@H](COC(N)=O)c2ccc(-c3cccnc3C3(C#N)CC3)c(Cl)c2)cs1` [Compound A70, (R)-2-(3-Chloro-4-(2-(1-cyanocyclopropyl)pyridin-3-yl)phenyl)-2-(3-(2-ethynyl-thiazol-4-yl)-1-methylureido)ethyl carbamate], the EC50 is at most 200 nM. In the case of `C#Cc1nc(NC(=O)N(CCS(C)(=O)=O)Cc2ccc(-c3cccc4ncsc34)cc2)cs1` [Compound A207, 1-(4-(Benzo[d]thiazol-7-yl)benzyl)-3-(2-ethynylthiazol-4-yl)-1-(2-(methyl-sulfonyl)ethyl)urea], the EC50 is at most 200 nM. For the compound `C#Cc1nc(NC(=O)N[C@@H](COC(N)=O)c2ccc(-c3cccnc3N3CC(F)(F)C3)cc2)cs1` [Compound A103, (R)-2-(4-(2-(3,3-Difluoroazetidin-1-yl)pyridin-3-yl)phenyl)-2-(3-(2-ethynyl-thiazol-4-yl)ureido)ethyl carbamate], the EC50 is at most 200 nM. In the case of `C#Cc1nc(NC(=O)N[C@@H](CS(C)(=O)=O)c2ccc(-c3cccnc3C3(C#N)CC3)c(Cl)c2)cs1` [Compound A72, (R)-1-(1-(3-Chloro-4-(2-(1-cyanocyclopropyl)pyridin-3-yl)phenyl)-2-(methyl-sulfonyl)ethyl)-3-(2-ethynylthiazol-4-yl)urea] it was at most 200 nM; in that of `C#Cc1nc(NC(=O)N[C@@H](CO)c2ccc(C3=C(C#N)CCCC3)cn2)cs1` [Compound A142, (R)-1-(1-(5-(2-Cyanocyclohex-1-en-1-yl)pyridin-2-yl)-2-hydroxyethyl)-3-(2-ethynylthiazol-4-yl)urea], at most 200 nM. Then `C#Cc1nc(NC(=O)NCc2ccc(-c3cncc(N4CCCC4)c3)cc2)cs1` [Compound A174, 1-(2-Ethynylthiazol-4-yl)-3-(4-(5-(pyrrolidin-1-yl)pyridin-3-yl)benzyl)urea], with at most 200 nM. With `C#Cc1nc(NC(=O)N[C@@H](COC(N)=O)c2ccc(-c3cccnc3N(C)C)c(Cl)c2)cs1` [Compound A101, (R)-2-(3-Chloro-4-(2-(dimethylamino)pyridin-3-yl)phenyl)-2-(3-(2-ethynyl-thiazol-4-yl)ureido)ethyl carbamate], the EC50 was at most 200 nM. Regarding `C#Cc1nc(NC(=O)N(CC#N)Cc2ccc(-c3cccc4ncsc34)cc2)cs1` [Compound A208, 1-(4-(Benzo[d]thiazol-7-yl)benzyl)-1-(cyanomethyl)-3-(2-ethynylthiazol-4-yl)urea], the EC50 was at most 200 nM. Then `C#Cc1nc(NC(=O)N[C@@H](COC(N)=O)c2ccc(C3=CCCc4c3cnn4C)cc2)cs1` [Compound A233, (R)-2-(3-(2-Ethynylthiazol-4-yl)ureido)-2-(4-(1-methyl-6,7-dihydro-1H-indazol-4-yl)phenyl)ethyl carbamate], with at most 200 nM; and `C#Cc1nccc(NC(=O)N[C@@H](CO)c2ccc(-c3cccc4ncsc34)cc2)n1` [Compound A241, (R)-1-(1-(4-(Benzo[d]thiazol-7-yl)phenyl)-2-hydroxyethyl)-3-(2-ethynyl-pyrimidin-4-yl)urea], with at most 200 nM. Then `C#Cc1nc(NC(=O)N[C@@H](CO)c2ccc(C3CCCCN3C(C)=O)cc2)cs1` (stereo partly drawn) [Compound A143, 1-((1R)-1-(4-(1-Acetylpiperidin-2-yl)phenyl)-2-hydroxyethyl)-3-(2-ethynyl-thiazol-4-yl)urea], with at most 200 nM; and `C#Cc1nc(NC(=O)NCc2ccc(-c3cccc(C4(C#N)CC4)c3)cc2)cs1` [Compound A167, 1-((3′-(1-Cyanocyclopropyl)-[1,1′-biphenyl]-4-yl)methyl)-3-(2-ethynylthiazol-4-yl)urea], with at most 200 nM.
